# Tested on: subjects with pulmonary hypertension
# Experiment: Systemic blood pressure (noninvasive) and heart rate monitoring during the study
# Description: During the study right heart/pulmonary artery hemodynamics were measured as well as noninvasive systemic blood pressure monitoring and simultaneous RV echocardiography. Subjects were tested for the changes in pulmonary vascular resistance (PVR) measured by right heart catheterization and using thermodilution cardiac output measurement at time zero, at times 15, 30 and 45 minutes after completion of each nebulization dose.
# Subjects were monitored closely for changes in blood pressure during the study. […] Subjects were continued to be monitored closely every 10 minutes for 2 hours.
# [1] = Patient 4, nitrite 45 mg inhaled, 15 min
# [2] = Patient 4, nitrite 45 mg inhaled, 30 min
# [3] = Patient 4, nitrite 45 mg inhaled, 45 min
# [4] = Patient 4, nitrite 45 mg inhaled, 60 min
# [5] = Patient 4, nitrite 90 mg inhaled, 15 min
# [6] = Patient 4, nitrite 90 mg inhaled, 30 min
# [7] = Patient 4, nitrite 90 mg inhaled, 45 min
# [8] = Patient 4, nitrite 90 mg inhaled, 60 min
# [9] = Patient 5, nitrite 45 mg inhaled, 15 min
# [10] = Patient 5, nitrite 45 mg inhaled, 30 min
# [11] = Patient 5, nitrite 45 mg inhaled, 45 min
# [12] = Patient 5, nitrite 45 mg inhaled, 60 min
# [13] = Patient 5, nitrite 90 mg inhaled, 15 min
# [14] = Patient 5, nitrite 90 mg inhaled, 30 min
# [15] = Patient 5, nitrite 90 mg inhaled, 45 min
# [16] = Patient 5, nitrite 90 mg inhaled, 60 min
# [17] = at the doses tested (45 mg and 90 mg inhaled)
structure (smiles),measurement,setting,value
"O=NO [nitrite, sodium nitrite]",Systemic DBP,[1],73
same,Systemic SBP,[1],137
same,Systemic mBP,[1],94.34
same,HR,[2],69
same,Systemic DBP,[2],77
same,Systemic SBP,[2],134
same,Systemic mBP,[2],96.01
same,HR,[3],72
same,Systemic DBP,[3],71
same,Systemic SBP,[3],134
same,Systemic mBP,[3],92.01
same,HR,[4],71
same,Systemic DBP,[4],71
same,Systemic SBP,[4],131
same,Systemic mBP,[4],91.01
same,HR,[5],61
same,Systemic DBP,[5],64
same,Systemic SBP,[5],120
same,Systemic mBP,[5],82.68
same,HR,[6],70
same,Systemic DBP,[6],68
same,Systemic SBP,[6],126
same,Systemic mBP,[6],87.34
same,HR,[7],63
same,Systemic DBP,[7],63
same,Systemic SBP,[7],121
same,Systemic mBP,[7],82.34
same,HR,[8],63
same,Systemic DBP,[8],66
same,Systemic SBP,[8],129
same,Systemic mBP,[8],87.01
same,HR,[9],58
same,Systemic DBP,[9],49
same,Systemic SBP,[9],91
same,Systemic mBP,[9],63.01
same,HR,[10],53
same,Systemic DBP,[10],52
same,Systemic SBP,[10],95
same,Systemic mBP,[10],66.34
same,HR,[11],65
same,Systemic DBP,[11],52
same,Systemic SBP,[11],98
same,Systemic mBP,[11],67.34
same,HR,[12],62
same,Systemic DBP,[12],45
same,Systemic SBP,[12],95
same,Systemic mBP,[12],61.67
same,HR,[13],59
same,Systemic DBP,[13],53
same,Systemic SBP,[13],100
same,Systemic mBP,[13],68.68
same,HR,[14],61
same,Systemic DBP,[14],49
same,Systemic SBP,[14],102
same,Systemic mBP,[14],66.68
same,HR,[15],65
same,Systemic DBP,[15],47
same,Systemic SBP,[15],94
same,Systemic mBP,[15],62.67
same,HR,[16],58
same,Systemic DBP,[16],54
same,Systemic SBP,[16],107
same,Systemic mBP,[16],71.68
same,HR,"Patient 6, nitrite 45, 15 min",95
same,Systemic DBP,"Patient 6, nitrite 45, 15 min",58
same,Systemic SBP,"Patient 6, nitrite 45, 15 min",110
same,Systemic mBP,"Patient 6, nitrite 45, 15 min",75.3426
same,HR,"Patient 6, nitrite 45, 30 min",99
same,Systemic DBP,"Patient 6, nitrite 45, 30 min",65
same,Systemic SBP,"Patient 6, nitrite 45, 30 min",127
same,Systemic mBP,"Patient 6, nitrite 45, 30 min",85.6773
same,HR,"Patient 6, nitrite 45, 45 min",96
same,Systemic DBP,"Patient 6, nitrite 45, 45 min",66
same,Systemic SBP,"Patient 6, nitrite 45, 45 min",126
same,Systemic mBP,"Patient 6, nitrite 45, 45 min",86.0106
same,HR,"Patient 6, nitrite 45, 60 min",97
same,Systemic DBP,"Patient 6, nitrite 45, 60 min",65
same,Systemic SBP,"Patient 6, nitrite 45, 60 min",128
same,Systemic mBP,"Patient 6, nitrite 45, 60 min",86.0107
same,HR,"Patient 6, nitrite 90, 15 min",93
same,Systemic DBP,"Patient 6, nitrite 90, 15 min",59
same,Systemic SBP,"Patient 6, nitrite 90, 15 min",112
same,Systemic mBP,"Patient 6, nitrite 90, 15 min",76.6761
same,HR,"Patient 6, nitrite 90, 30 min",95
same,Systemic DBP,"Patient 6, nitrite 90, 30 min",66
same,Systemic SBP,"Patient 6, nitrite 90, 30 min",110
same,Systemic mBP,"Patient 6, nitrite 90, 30 min",80.6762
same,HR,"Patient 6, nitrite 90, 45 min",90
same,Systemic DBP,"Patient 6, nitrite 90, 45 min",60
same,Systemic SBP,"Patient 6, nitrite 90, 45 min",114
same,Systemic mBP,"Patient 6, nitrite 90, 45 min",78.0096
same,HR,"Patient 6, nitrite 90, 60 min",91
same,Systemic DBP,"Patient 6, nitrite 90, 60 min",58
same,Systemic SBP,"Patient 6, nitrite 90, 60 min",111
same,Systemic mBP,"Patient 6, nitrite 90, 60 min",75.676
same,heart rate,[17],does not significantly affect
same,systemic blood pressure,[17],does not significantly affect
